Here are results for four compounds from publication PMC9508125, “The evolutionary advantage of an aromatic clamp in plant family 3 glycoside exo-hydrolases” (Nature Communications, 2022).

For one experiment, the target named is Native HvExoI (Hordeum vulgare, UniProt Q9XEI3). In words: Inhibition by thio-analogues using the 4NP-Glc substrate. Conditions: for ΔG: calculated according to ∆G = -RT ln [1/Ki]; for Ki: apparent inhibition constant, 4NP-Glc substrate. It counts as biochemical. As for the experimental part:
(§1) Dependency of activities of WT and mutant HvExoI on pH (McIlvaine buffers in the pH range of 3.5–8.5 at 30 °C) and temperature (100 mM sodium acetate buffer, pH 5.25, temperature range 0–80 °C, 15 min incubations) were determined using 0.2% (w/v) 4NP-Glc[21],[59]. Relative rates of hydrolysis of β-linked poly-, oligosaccharides, and aryl-glucosides were determined using near-homogenous HvExoI at 50 pmoles. […] Kinetic parameters were calculated from the analyses of Michaelis-Menten plots with Grafit 7.0.3[62] and processed by a proportional weighted fit, using nonlinear regression. The relative rates of hydrolysis, kinetic, and inhibition data were rounded to one or two decimal points (Supplementary Tables 2–4).

For a further experiment, the target named is WT HvExoI (Hordeum vulgare, UniProt Q9XEI3). The description is as above. It counts as biochemical. Conditions: for ΔG: calculated according to ∆G = -RT ln [1/Ki]; for type of inhibition: WT HvExoI. How it is done: as §1
In the next experiment the test system is Recombinant HvExoI W286Y. It counts as biochemical, Hordeum vulgare. Conditions: calculated according to ∆G = -RT ln [1/Ki]. How it is done:
as §1

Another experiment relates to Recombinant HvExoI W286F. The experiment can be described thus: Inhibition by thio-analogues using the 4NP-Glc substrate. It counts as biochemical, Hordeum vulgare. Conditions: calculated according to ∆G = -RT ln [1/Ki]. As for the experimental part: as §1
The next experiment concerns Recombinant HvExoI W434A. The description is as above. It counts as biochemical, Hordeum vulgare. Conditions: calculated according to ∆G = -RT ln [1/Ki]. As for the experimental part: as §1
Another experiment has as its system Recombinant HvExoI W434F. The experiment is described as above. It counts as biochemical, Hordeum vulgare. Conditions: for ΔG: calculated according to ∆G = -RT ln [1/Ki]. As for the experimental part: as §1
The next experiment relates to Recombinant HvExoI W434H. Described as above. It counts as biochemical, Hordeum vulgare. The note with it: for ΔG: calculated according to ∆G = -RT ln [1/Ki]. As for the experimental part: as §1
For another experiment, the system named is Recombinant HvExoI W434Y. The description is as above. The note with it: calculated according to ∆G = -RT ln [1/Ki]. It counts as biochemical, Hordeum vulgare. As for the experimental part:
as §1

The target of the next experiment is HvExoI. Further details: method as in PMID 8617814. The note with it: transition state analogue; previous observations; cited from earlier work.

Native HvExoI, sequence (Q9XEI3 entry or part of it): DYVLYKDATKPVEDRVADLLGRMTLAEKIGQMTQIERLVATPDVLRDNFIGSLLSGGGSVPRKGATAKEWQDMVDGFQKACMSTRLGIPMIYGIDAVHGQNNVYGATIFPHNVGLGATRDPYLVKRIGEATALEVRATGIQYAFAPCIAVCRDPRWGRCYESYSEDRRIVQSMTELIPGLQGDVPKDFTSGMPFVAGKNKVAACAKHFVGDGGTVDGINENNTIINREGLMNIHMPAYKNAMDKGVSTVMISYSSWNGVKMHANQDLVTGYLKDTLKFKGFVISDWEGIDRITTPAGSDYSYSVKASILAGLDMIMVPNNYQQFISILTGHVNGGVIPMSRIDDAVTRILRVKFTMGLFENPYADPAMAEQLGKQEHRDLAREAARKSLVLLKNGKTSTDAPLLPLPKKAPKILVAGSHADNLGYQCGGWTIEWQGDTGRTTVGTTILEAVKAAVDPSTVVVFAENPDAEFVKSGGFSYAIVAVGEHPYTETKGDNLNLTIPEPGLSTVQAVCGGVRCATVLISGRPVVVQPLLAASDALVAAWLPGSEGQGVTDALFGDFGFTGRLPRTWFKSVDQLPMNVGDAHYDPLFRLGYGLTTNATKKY
WT HvExoI, sequence (Q9XEI3 entry or part of it): as above

Take “4-nitrophenyl 3-thio-laminaribioside [4NP-G3SG]”: the ΔG was -4.37 kcal/mol at Native HvExoI; -4.37 kcal/mol on WT HvExoI (Recombinant WT); -3.75 kcal/mol in the experiment on Recombinant HvExoI W286Y; -4.37 kcal/mol in the experiment with Recombinant HvExoI W286F; -3.92 kcal/mol in the experiment on Recombinant HvExoI W434A; -4.11 kcal/mol in the experiment with Recombinant HvExoI W434F. Further, the ΔG in the experiment on Recombinant HvExoI W434H is -3.61 kcal/mol; in the experiment on Recombinant HvExoI W434Y, -3.75 kcal/mol. The type of inhibition entry at WT HvExoI was “competitive inhibition”.

Turning to `O=C1O[C@H](CO)[C@@H](O)[C@H](O)[C@H]1O` [D-glucono−1,5-lactone], on HvExoI, the Ki is 2.1 µM.

`CO[C@@H]1O[C@H](CO)[C@@H](S[C@@H]2O[C@H](CO)[C@@H](O)[C@H](O)[C@H]2O)[C@H](O)[C@H]1O` [G4SG-OMe, methyl 4-thio-β-cellobioside]: the Ki is 1000 µM at Native HvExoI and 1000 µM on WT HvExoI (Recombinant WT, apparent inhibition constant, 4NP-Glc substrate). Moreover, the ΔG on Native HvExoI was -4.16 kcal/mol; on WT HvExoI (Recombinant WT) it was -4.16 kcal/mol; in the experiment with Recombinant HvExoI W286Y it was -3.68 kcal/mol; with Recombinant HvExoI W286F it was -3.75 kcal/mol; with Recombinant HvExoI W434A, -3.68 kcal/mol; in the experiment with Recombinant HvExoI W434F, -3.42 kcal/mol. In addition, the ΔG is -3.85 kcal/mol in the experiment with Recombinant HvExoI W434H and -3.3 kcal/mol in the experiment with Recombinant HvExoI W434Y. Also, the type of inhibition result on WT HvExoI is on record as “competitive inhibition”.

On to `CO[C@@H]1O[C@H](CS[C@@H]2O[C@H](CO)[C@@H](O)[C@H](O)[C@H]2O)[C@@H](O)[C@H](O)[C@H]1O` [G6SG-OMe, methyl 6-thio-β-gentiobioside], for which the Ki on Native HvExoI was found to be 100 µM. Besides, the ΔG at Native HvExoI is -5.54 kcal/mol; at WT HvExoI (Recombinant WT) it was -5.09 kcal/mol; in the experiment on Recombinant HvExoI W286Y it was -4.88 kcal/mol; in the experiment with Recombinant HvExoI W286F it was -5.14 kcal/mol; in the experiment on Recombinant HvExoI W434F it was -4.47 kcal/mol; in the experiment on Recombinant HvExoI W434H it was -4.3 kcal/mol. Besides, in the experiment on Recombinant HvExoI W434Y, the ΔG is -4.88 kcal/mol. Also, the type of inhibition result on WT HvExoI is on record as “competitive inhibition”. In addition, the “fold higher Ki constant value compared to WT” value in the experiment with Recombinant HvExoI W434F was determined as 6 fold; in the experiment on Recombinant HvExoI W434H, 8 fold.
